Results from patent US20200397965A1, “METHOD AND SYSTEM FOR […] MONOXIDE (CO) ADMINISTRATION TO EX-VIVO FLUIDS” (Julius-Maximilians-Universitaet Wuerzburg, priority 2018, published 2020).

Assay: ICP-MS analysis for molybdenum in harvested organs and blood after ECCORS CO delivery in veno-arterial ECMO
Assay type: in vivo, landrace-hybrid pigs
Conditions: swine on ECMO with ECCORS, Beck1 injected into FeCl3 secondary circuit behind silicone membrane
Method: After obtaining consent by Regierungspraesidium Freiburg, seven landrace-hybrid pigs (weight 52±2 kg) were anesthetized (continuous infusion of propofol, fentanyl and cisatracurium), mechanically ventilated and monitored with electrocardiogram, pulse-oximetry and invasive blood pressure measurement by cannulating the carotid and pulmonary artery. Instrumentation with veno-arterial ECMO (extracorporeal membrane oxygenation) was carried out in a sterile technique: Venous access was achieved by ultrasound-guided cannulation of femoral vein (21 French HLS cannula, Maquet, Rastatt, Germany), while arterial inflow into the femoral artery was established using 17 French HLS cannula from Maquet, (Rastatt, Germany). The ECMO circuit (primary circuit) was then set-up using a customary centrifugal pump head (Revolution 5, Sorin, Rome, Italy), an oxygenator (EOS ECMO, Sorin, Rome, Italy), and 3/8” tubing for interconnection. The system was regulated using a modified console (core element: SCP-Console, Sorin, Rome, Italy).
The ECCORS was then integrated in line with the oxygenator into the primary ECMO circuit. A commercially available PDMSXA-1.0 silicone membrane module from PermSelect (AnnArbor, II) served as core functional element of the ECCORS. […]
Tissue was analyzed for CO effects and residual CORM constituents in the harvest organs and blood using ICP-MS analysis for molybdenum. […]

Mo(CO)3(CNCH2COOH)3 [CORM]
toxic components of CORM / transition metals found in tissue or blood: no transition metals can be found in the tissue or blood
